We go through seven compounds from US6004749A, “Method for identifying compounds affecting RNA/RNA binding protein interactions” (Message Pharmaceuticals, priority 1997, dated 1999).

The test system of data set [1] is TNF-α 3' untranslated region / human cell RBP's. Briefly: High throughput screening assay, TNF-α 3' untranslated region with total protein extract. Type of data set: binding. The following applies: TNF-α 3' UTR; for effect on TNF-α RNA/RBP interaction, in words: total protein extract; for EC50: read-out: EC50 on in vitro binding. As for the experimental part:
FIG. 9A is a graph of the level of RNA/RBP interactions (between the TNF-α 3' untranslated region and human cell RBP's) in the presence or absence of test compounds. […] The remaining columns include RNA plus extract in the presence of specific compounds.
(§1) All binding reactions are performed in 96-well polystyrene plates in a final volume of 10 or 100 μl. The assays were constituted and performed as described below. Specifically, assays were performed by (1) forming a binding solution including RNA molecules, 7.5 mM BTP at pH 8.5, 10 mM KCl, 5 mM MgCl2, 0.2 mM DTT, and 10% glycerol, (2) heating the binding solution to denature the RNA molecules, (3) cooling the binding solution, (4) adding RNA binding proteins to the binding solution, (5) loading the binding solution onto a filter, and (6) detecting the amount RNA retained on the filter. It is preferred that the samples be loaded on to a filter of either pure nitrocellulose or a mixed cellulose ester (MCA). It is also preferred that the filters have a 0.2μ pore size, although filters with a 0.45μ pore size will also bind the RNA/RNA binding protein complex. It is preferred that, prior to loading the binding solution onto a filter, the volume is increased. For this purpose, it is preferred that the dilution solution has the same buffer components as the binding solution except lacking the density agent. For a 10 μl volume it is preferred that the final volume be about 100 μl by addition of 1× binding buffer. It is also preferred that the binding solution be loaded onto the filter under vacuum. It is also preferred that the filter is washed twice prior to detecting the amount of RNA retained on the filter. Preferably the wash solution had the same composition as the dilution solution. However, TE (pH 8.0), PBS, or TCA can also be used as wash solutions. In most of the assays described below, the RNA molecules were labeled with ^32 P.
This example describes identification of compounds which either increase or decrease the binding interaction between a site within an RNA molecule which interacts with an RBP. This example makes use of a total protein extract which allows identification of compounds that modulate interactions without the need for identification of the specific RBP(s) involved.

Data set [2] has as its system iron response element RNA/RBP interaction. Briefly: Control assay using the iron response element (Example 4). To be noted: increasing concentrations; unrelated RNA specificity control. Type of data set: binding.
In data set [3] the test system is IRE RNA / RNA binding protein (K562 protein extract). The experiment in a line: Filter binding assay, IRE RNA with K562 protein extract. The following applies: hemin 1 to 100 μM; FeCl3 1 μM to 1 mM; desferroxiamine 1 μM to 1 mM. The source says:
FIG. 6 is a graph of the amount of radioactively labeled RNA retained on a filter (expressed in percent of the amount of RNA retained on a filter in a reference binding solution) following loading of various binding solutions. All of the binding solutions contained radioactively labeled IRE RNA either alone or including various other components. The first column represents a binding solution without RNA binding protein. The remaining columns represent binding solutions containing RNA binding protein (K562 extract). […] Desferal and des indicate that the binding solutions included the indicated amount of desferroxiamine as a test compound.
FIG. 8 is a graph of the amount of radioactively labeled RNA retained on a filter (expressed in percent of the amount of RNA retained on a filter in a reference binding solution) following loading of various binding solutions. Alternate columns correspond to binding solutions containing radioactively labeled AUUUA RNA or IRE RNA, either alone or including various other components. The first two column represents binding solutions without RNA binding protein. The remaining columns represent binding solution containing RNA binding protein (K562 extract). Columns 5 through 40 correspond to binding solutions including the indicated amount of the indicated test compound.
All binding reactions are performed in 96-well polystyrene plates in a final volume of 10 or 100 μl. The assays were constituted and performed as described below. […]
Binding assays were performed with wild-type IRE RNA and K562 protein extract in the presence of sources of iron or iron chelators to determine the ability of the filter assay to detect the modulation of binding interactions by small molecules. […] The reactions were analyzed by gel shifts to visualize the results of the filter assay.

The test system of data set [4] is AUUUA RNA / RNA binding protein (K562 extract). The experiment in a line: High throughput filter binding assay, 32P-labeled AUUUA RNA with K562 protein extract.
From the text: FIG. 7 is a graph of the amount of radioactively labeled RNA retained on a filter (expressed in percent of the amount of RNA retained on a filter in a reference binding solution) following loading of various binding solutions. All of the binding solutions contained radioactively labeled AUUUA RNA either alone or including various other components. The first column represents a binding solution without RNA binding protein. The remaining columns represent binding solution containing RNA binding protein (K562 extract). Columns 3 through 8 correspond to binding solutions including the indicated test compound.
as §1
The library was initially screened at 10 μM against ^32 P-labeled AUUUA RNA. Several methods of introducing the compounds into the binding reaction were tested. Initially the compounds were coincubated with the RNA and protein, producing modest results. Next, preincubation with either the protein extract or the RNA was tried with improved results.
Seventeen compounds were chosen for further analysis at 100 nM, 1 μM and 10 μM using both AUUUA and IRE RNAs based on the results from four screening efforts (Exps. 29-31, 33). Table 2 summarizes the results from these compounds at 10 μM. The results are also shown graphically in FIG. 7. […] Compounds D9 and H2, chosen as negative controls from the initial screening, continued to have no effect in the dose dependent screen (Exp. 33) and were identified as vehicle controls.

For another data set, the system named is TNF-α production. The following applies: previously shown; cited from earlier work.
The mark [5] stands for this setting: compound 10 μM, RNA & K562 = 100.00.

One may read the EC50 as the concentration needed to bring the measured effect to its halfway point.

“Also recorded” adds a separate entry of the source.

As for `Cc1c(CCN)c2c3n1CCCC3CCC2` (centres unmarked) [SYM 1405], in data set [1], the inhibition of binding result is “about 40%”; the “effect on TNF-α RNA/RBP interaction, in words” value is given as “inhibited binding of TNF-α in a concentration-dependent manner; also recorded: concentration-dependent inhibition”; the EC50 was around 2 µM. In data set [2], the “effect on iron response element binding, in words” value was “little effect on the iron response element”.

As to `CC(=O)N(O)CCCCCNC(=O)CCC(=O)N(O)CCCCCNC(=O)CCC(=O)N(O)CCCCCN` [Desferroxiamine, desferroxiamine], the “modulation of IRE/protein binding by iron sources or iron chelator, in words” value (from here on “modulation of IRE/protein binding”) in data set [3] is “did not change the amount IRE/protein complex formed”.

With `CC(=NNC(=N)N)c1cc(NC(=O)CCCCCCCCC(=O)Nc2cc(C(C)=NNC(=N)N)cc(C(C)=NNC(=N)N)c2)cc(C(C)=NNC(=N)N)c1` [Compound G10, CNI-1493], in data set [4] (10 μM, AUUUA RNA), the “effect on counts (AUUUA RNA binding), in words” value is “substantial increase in counts in 3 of the 4 experiments”. Also, in data set [4] (setting [5]), the “Avg. % (labeled AUUUA RNA retained on filter, average of Experiments #33, #31, #30, #29)” value amounted to 111.00%; the “Labeled AUUUA RNA retained on filter, percent of RNA & K562 control, Experiment #29” value is listed as 114.53%; the “Labeled AUUUA RNA retained on filter, percent of RNA & K562 control, Experiment #30” value was found to be 66.94%; the “Labeled AUUUA RNA retained on filter, percent of RNA & K562 control, Experiment #31” value is listed as 127.28%. Also, the “Labeled AUUUA RNA retained on filter, percent of RNA & K562 control, Experiment #33” value in data set [4] (setting [5]) is 135.24%. For the same compound, the “effect on TNF-α production, in words” value in the data set with TNF-α production was “post-transcriptionally inhibit TNF-α production”.

With `[Cl][Fe]([Cl])[Cl]` [FeCl3], the “modulation of IRE/protein binding” value in data set [3] was “concentration-dependent inhibition of binding”.

As for `O=[N+]([O-])c1ccc(C(Cl)=NCCCN=Cc2ccc3c(c2)OCO3)cc1` [SYM 1301], in data set [1], the “effect on TNF-α RNA/RBP interaction, in words” value was “no effect”.

As for `CC(=NNC(=N)N)c1cc(NC(=O)CCCCCCC(=O)Nc2cc(C(C)=NNC(=N)N)cc(C(C)=NNC(=N)N)c2)cc(C(C)=NNC(=N)N)c1` [SYM 1710], in data set [1], the potentiation of binding result was “approximately 3 fold” and the EC50 came out at 23 µM.

Consider hemin, for which, in data set [3], the “modulation of IRE/protein binding” value is “concentration-dependent inhibition of binding”.
